This passage reports IC50 results from patent US5409950A, “Cyclic ketal derivatives” (Glaxo Group Limited, priority 1991, dated 1995).

The target of this experiment is T1, squalene synthase (Rattus norvegicus, UniProt Q02769).
T1 construct: incubating rat liver homogenate with various concentrations of the test compound; from tissue; host or cells: rat liver homogenate
T1 sequence (Q02769 1-416): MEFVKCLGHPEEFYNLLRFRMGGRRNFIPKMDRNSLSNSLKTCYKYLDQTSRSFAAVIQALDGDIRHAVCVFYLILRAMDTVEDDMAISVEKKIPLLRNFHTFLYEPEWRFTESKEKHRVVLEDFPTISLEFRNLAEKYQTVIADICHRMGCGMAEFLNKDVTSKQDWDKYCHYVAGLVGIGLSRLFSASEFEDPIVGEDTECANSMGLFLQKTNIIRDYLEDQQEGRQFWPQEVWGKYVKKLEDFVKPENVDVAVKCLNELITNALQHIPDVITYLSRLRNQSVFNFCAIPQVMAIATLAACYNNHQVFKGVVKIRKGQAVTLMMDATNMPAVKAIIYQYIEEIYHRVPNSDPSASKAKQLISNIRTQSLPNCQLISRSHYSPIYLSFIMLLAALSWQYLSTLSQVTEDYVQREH
Kind of experiment: Inhibition of squalene synthase in rat liver homogenate. The class given is biochemical. To be noted: [2-14C] farnesylpyrophosphate as substrate, 30 minute assay, read-out: IC50 (concentration of compound giving 50% inhibition of [14C] squalene production). The procedure:
Acta, Volume 877, 50-60 (1986) and modified to include measurement of cholesterol by high performance liquid chromatography (h.p.l.c.).
[^14 C] Squalene was separated from unreacted substrate on thin layer chromatography plates and determined by liquid scintillation counting. Inhibition of squalene synthase was quantified by incubating rat liver homogenate with various concentrations of the test compound in the presence of [2-^14 C] farnesylpyrophosphate. The concentration of compound giving 50% inhibition of [^14 C] squalene production in a 30 minute assay was taken as the IC50 value.

Where only a bound is given, the exact number is not on record here.

On to `CC[C@H](C)C[C@H](C)/C=C/C(=O)O[C@@H]1[C@@H](O)[C@@]2(CC/C(C)=C/C(C)Cc3ccccc3)O[C@H](C(=O)O)[C@@](O)(C(=O)O)[C@]1(C(=O)O)O2` (some centres unmarked) [Compound A1], for which the IC50 is under 100 nM. With `C=C(CC[C@]12O[C@H](C(=O)O)[C@@](O)(C(=O)O)[C@](C(=O)O)(O1)[C@H](OC(=O)CC(O)CCC(C)CC)[C@H]2O)[C@@H](OC(C)=O)[C@H](C)Cc1ccccc1` (some centres unmarked) [Compound L], the IC50 is under 100 nM. With `C=C(CC[C@]12O[C@H](C(=O)O)[C@@](O)(C(=O)O)[C@](C(=O)O)(O1)[C@H](OC(=O)/C=C/[C@@H](C)C[C@@H](C)CC)[C@H]2O)C(O)C(CO)Cc1ccccc1` (some centres unmarked) [Compound N], the IC50 is under 100 nM. Then `C=C(CC[C@]12O[C@H](C(=O)O)[C@@](O)(C(=O)O)[C@](C(=O)O)(O1)[C@H](OC(=O)/C=C/C(C)(O)CC(C)CC)[C@H]2O)[C@@H](OC(C)=O)[C@H](C)Cc1ccccc1` (some centres unmarked) [Compound K], with under 100 nM. To `C=C(CC[C@]12O[C@H](C(=O)O)[C@@](O)(C(=O)O)[C@](C(=O)O)(O1)[C@H](OC(=O)/C=C/[C@@H](C)C[C@@H](C)CC)[C@H]2O)C(NC(C)=O)C(C)Cc1ccccc1` (some centres unmarked) [Compound B1] belongs under 100 nM. To `C=C(CC[C@]12O[C@H](C(=O)OC)[C@@](O)(C(=O)O)[C@](C(=O)O)(O1)[C@H](OC(=O)/C=C/[C@@H](C)C[C@@H](C)CC)[C@H]2O)[C@@H](O)[C@H](C)Cc1ccccc1` [Compound E, [1S-[1α(4R*,5S*),3α,4β,5α,6α(2E,4R*,6R*),7β]]1-(4-hydroxy-5-methyl-3-methylene-6-phenylhexyl)-4,6,7-trihydroxy-2,8-dioxabicyclo[3.2.1]octane-3,4,5-tricarboxylic acid, 6-(4,6-dimethyl-2-octenoate), 3-methyl ester] belongs under 100 nM; to `C=C(CC[C@@]12C[C@@H](OC(=O)/C=C/[C@@H](C)C[C@@H](C)CC)[C@@](C(=O)O)(O1)[C@](O)(C(=O)O)[C@@H](C(=O)O)O2)[C@@H](OC(C)=O)[C@H](C)Cc1ccccc1` [Compound O, [1S-[1α(4R*,5S*),3α,4β,5α,6α(2E,4R*,6R*)]]1-4-acetyloxy-5-methyl-3-methylene-6-phenylhexyl)-4,6-dihydroxy-2,8-dioxabicyclo[3.2.1]octane-3,4,5-tricarboxylic acid, 6-(4,6-dimethyl-2-octenoate)], under 100 nM. Turning to `C=C(CC[C@]12O[C@H](C(=O)O)[C@@](O)(C(=O)O)[C@](C(=O)O)(O1)[C@H](OC(=O)CCC(C)CC(C)CC)[C@H]2O)[C@@H](OC(C)=O)[C@H](C)Cc1ccccc1` (some centres unmarked) [Compound U], the IC50 is under 100 nM.

`C=C(CC[C@]12O[C@H](C(=O)O)[C@@](O)(C(=O)O)[C@](C(=O)O)(O1)[C@H](OC(=O)/C=C/C(C)(O)CC(C)CC)[C@H]2O)[C@@H](O)[C@H](C)Cc1ccccc1` (some centres unmarked) [Compound C1]: the IC50 is under 100 nM. On to `CC[C@H](C)C[C@H](C)/C=C/C(=O)O[C@@H]1[C@@H](O)[C@@]2(CC/C(=C\C(C)Cc3ccccc3)CNC(C)=O)O[C@H](C(=O)O)[C@@](O)(C(=O)O)[C@]1(C(=O)O)O2` (some centres unmarked) [Compound T], for which the IC50 was under 100 nM. For the molecule `C=C(CC[C@]12O[C@H](C(=O)O)[C@@](O)(C(=O)O)[C@](C(=O)O)(O1)[C@H](OC(=O)CC(O)CCC(C)CC)[C@H]2O)[C@@H](O)[C@H](C)Cc1ccccc1` (some centres unmarked) [Compound W], the IC50 is under 100 nM. On to `C=C(CC[C@]12O[C@H](C(=O)O)[C@@](O)(C(=O)O)[C@](C(=O)O)(O1)[C@H](OC(=O)/C=C/[C@@H](C)C[C@@H](C)CC)[C@H]2O)[C@@H](O)[C@H](C)Cc1ccccc1` [Compound B, [1S-[1α(4R*,5S*),3α,4β,5α,6α(2E,4R*,6R*),7 β9]1-(4-hydroxy-5-methyl-3-methylene-6-phenylhexyl)-4,6,7-trihydroxy-2,8-dioxabicyclo[3.2.1]octane-3,4,5-tricarboxylic acid, 6-(4,6-dimethyl-2-octenoate)], for which the IC50 was under 100 nM.

For `C=C(CC[C@]12O[C@H](C(=O)O)[C@@](O)(C(=O)O)[C@](C(=O)O)(O1)[C@H](OC(=O)/C=C/C(C)CCCC)[C@H]2O)[C@@H](OC(C)=O)[C@H](C)Cc1ccccc1` (some centres unmarked) [Compound G], the IC50 is under 100 nM. Then `C=C(CC[C@]12O[C@H](C(=O)O)[C@@](O)(C(=O)O)[C@](C(=O)O)(O1)[C@H](OC(=O)CC(O)C(C)CC(C)CC)[C@H]2O)[C@@H](OC(C)=O)[C@H](C)Cc1ccccc1` (some centres unmarked) [Compound I], with under 100 nM; and `C=C(CC[C@@]12O[C@H](C(=O)O)[C@@](O)(C(=O)O)[C@@](C(=O)O)(C[C@H]1O)O2)[C@@H](OC(C)=O)[C@H](C)Cc1ccccc1` [Compound V, [1S-[1α(4R*,5S*),3α,4β,5α,7β]]1-(4-acetyloxy-5-methyl-3-methylene-6-phenylhexyl)-4,7-dihydroxy-2,8-dioxabicyclo[3.2.1]octane-3,4,5-tricarboxylic acid], with under 100 nM; and `C=C(CC[C@]12O[C@H](C(=O)O)[C@@](O)(C(=O)O)[C@](C(=O)O)(O1)[C@H](OC(=O)CC(O)C(C)CC(C)CC)[C@H]2O)[C@@H](O)[C@H](C)Cc1ccccc1` (some centres unmarked) [Compound M], with under 100 nM. To `C=C(CC[C@]12O[C@H](C(=O)O)[C@@](O)(C(=O)O)[C@](C(=O)O)(O1)[C@H](OC(=O)/C=C/C(C)=C/C(C)CC)[C@H]2O)[C@@H](OC(C)=O)[C@H](C)Cc1ccccc1` (some centres unmarked) [Compound H] belongs under 100 nM.
